Test system: neuromuscular junction
Test: inhibition of the ex-vivo neuromuscular junction preparation (FIG. 1)
Design: species or system mouse
Conditions: single molecule alone
Source text: The Applicants arrived at the results of the present invention in the course of their studies on the mechanism of action of snake presynaptic PLA2 neurotoxins. These presynaptic neurotoxins are major components of the venom of many poisonous snakes. Starting from: a) the established fact that these neurotoxins are endowed with a phospholipase A2 (PLA2) activity and that such activity leads to the production of LysoPLs and FAs following the hydrolysis of the fatty acid ester bond in position 2 of phospholipids (4); b) the fact that lysophospholipids and fatty acids in the appropriate membrane localization favor membrane fusion and inhibit membrane fission (5), and that c) such biological activities would lead to the depletion of synaptic vesicles from nerve terminals, as the one observed by electron microscopy upon exposure to the snake presynaptic PLA2 neurotoxins (6,7), the Applicants decided to test the effect of a mixture of lysophospholipids and fatty acids on the neuromuscular junction both in an ex-vivo preparation and in an in-vivo system.
Similar data were obtained with other lysoPLs varying with respect to R and/or with respect to R′. […] In other words, the two molecules act in a synergistic mode and this is at the very basis of the present patent. […]

In the case of `CCCCCCCC/C=C\CCCCCCCC(=O)O` [OA, oleic acid], the “inhibition of the neuromuscular junction” value is reported as “unable to elicit a substantial inhibition”.
In the case of `CCCCCCCCCCCCCC(=O)OC[C@@H](O)COP(=O)([O-])OCC[N+](C)(C)C` [lysoPC, 1-Myristoyl-sn-glycero-3-phosphocholine], the “inhibition of the neuromuscular junction” value is reported as “unable to elicit a substantial inhibition”.

Reference: patent US20070036737A1, “PRODUCTS FOR TOPICAL A[…] LYSOPHO[…] FATTY ACIDS” (priority 2005, published 2007)
